Values quoted from earlier work in patent publication US20120053222A1, “Novel Metabolic Disease Therapy” (priority 2009, published 2012).

System: ob/ob mice
Conditions: injection

Which liver steatosis does the source give for exendin 4 here?
Its liver steatosis is “diminishes liver steatosis”.
